Experimental data: patent US20060030719A1, “Cis-3,5-disubstituted-dihydro-furan-2-ones and the preparation and use thereof” (priority 2004, published 2006)

melting point: 60 to 62 °C
SMILES: C[C@@H]1C[C@H](CC2CCCCC2)C(=O)O1 (relative stereo) [Example 20, cis-3-cyclohexylmethyl-5-methyl-dihydro-furan-2-one]
